Reference: publication PMC12410356 (International Journal for Parasitology: Drugs and Drug …, 2025)

Columns and labels:
[1] = test system: E. multilocularis metacestode vesicles; experiment: Phosphoglucose isomerase (PGI) release assay (damage-marker release) on metacestode vesicles; assay type: cell-based, Echinococcus multilocularis; conditions: overview screen, 10 μM, singlets, relative to 0.1 % Triton X-100, DMSO subtracted; for PGI d5 (relative PGI release): 5 days; for PGI d12 (relative PGI release): 12 days
[2] = test system: E. multilocularis metacestode vesicles; experiment: Metacestode vesicle viability assay (ATP, CellTiter-Glo); assay type: cell-based, Echinococcus multilocularis; conditions: overview screen, 10 μM, singlets, 12 days, relative to DMSO control
Procedure: Viability was assessed after 12 days using the same metacestode vesicles as for the PGI release assay. Triton X-100 was added to each well to a final concentration of 0.1 %. Subsequently the metacestode vesicles were broken mechanically and 50 μL of the supernatant was mixed with 50 μL of CellTiter-Glo® buffer (Promega, Dübendorf, Switzerland). Measurements were performed on a HIDEX Sense microplate reader.

Structure (SMILES) | PGI d5 (relative PGI release) [1] [%] | PGI d12 (relative PGI release) [1] [%] | Viability d12 (relative viability) [2] [%]
NC(=S)N/N=C/c1ncccc1N [MMV1580496] | -0.2661 | 1.095 | 58.7881
CC(C)(C)NC(=O)N[C@H](C(=O)N1C[C@H]2[C@@H]([C@H]1C(=O)NC(CC1CCC1)C(=O)C(N)=O)C2(C)C)C(C)(C)C (stereo partly drawn) [MMV1580497] | 0.3266 | 69.2218 | 40.5469
O=C(O)C[C@H]1CC[C@H](c2ccc(-c3ccc(Nc4ccc(C(F)(F)F)nc4)cn3)cc2)CC1 [MMV1580498] | 0.9992 | 1.035 | 139.746
COc1ccc(NS(=O)(=O)c2ccc(Cl)s2)cn1 [MMV1580499] | 0.09331 | -16.9426 | 78.1001
Cn1c2ccccc2c(=O)c2c(O)cccc21 [MMV1580500] | 1.098 | -0.5737 | 90.8954
CC1(C)CC(NC(=O)C(=O)Nc2ccc(Cl)cc2)CC(C)(C)N1 [MMV1580501] | 0.3852 | 0.4399 | 102.317
c1cc(CN2CCCNCCNCCCNCC2)ccc1CN1CCCNCCNCCCNCC1 [MMV1580502] | -0.2909 | 2.621 | 124.773
CC(=O)N1c2ccccc2NC2=C(C(=O)CC(C)(C)C2)C1c1ccc(OCc2ccccc2)cc1 (stereo not drawn) [MMV1580503] | 1.18 | -18.9728 | 72.2027
Oc1ccc(NCc2ccccc2OCc2ccccc2)cc1 [MMV1580504] | -1.084 | -20.6703 | 79.6345
O=C(Nc1ccc(N2CCN(C(=O)c3ccccc3)CC2)cc1)c1ccc2c(c1)OCO2 [MMV1580505] | -0.142 | -0.2928 | 160.891
C[C@H](NC(=O)C(=O)Nc1ccccc1C(C)(C)C)C(=O)N[C@@H](CC(=O)O)C(=O)COc1c(F)c(F)cc(F)c1F [MMV1580794] | -0.7921 | -19.0747 | 57.1149
CC[C@@]1(O)C(=O)OCc2c1cc1n(c2=O)Cc2cc3c([N+](=O)[O-])cccc3nc2-1 [MMV1580796] | 0.7883 | -0.447 | 120.917
OCCC#Cc1nc(-c2ccc(F)cc2)c(-c2ccncc2)n1CCCc1ccccc1 [MMV1580797] | 0.809 | -17.1938 | 270.956
Cc1[nH]c2ccccc2c1CC(=O)N[C@@H](Cc1ccccc1)C(=O)N(C)c1ccccc1 [MMV1580798] | 0.141 | -4.531 | 204.25
COc1ccc(COc2cc3oc(=O)c4cc(C(C)O)ccc4c3cc2OC)cc1 (stereo not drawn) [MMV1580799] | -0.002121 | -19.4753 | 164.074
N#Cc1cc([N+](=O)[O-])ccc1Oc1ccccc1Cl [MMV1580800] | 1.0953 | -9.284 | 90.6917
Cc1nc2ccc(Cl)cc2c(-c2ccccc2)c1CC(=O)O [MMV1580801] | 6.482 | 83.9153 | 42.503
Nc1nc(NC2Cc3ccc(F)cc3C2)nc(N2CCCCC2)n1 (stereo not drawn) [MMV1580839] | -3.67 | -6.152 | 110.365
